Experimental data reported in patent US9981960B2, “Pyrrolidine compound and application as melanocortin receptor agonist” (MITSUBISHI TANABE PHARMA CORPORATION, priority 2014, dated 2018).

Target: T1, Human MC1R (Homo sapiens, UniProt Q01726)
T1 construct: endogenous in cells; host or cells: human melanoma cell line HBL
Test: MCR agonist measurement (cAMP measurement), human MC1R agonist activity in human melanoma cell line HBL
Type: cell-based
Conditions: HBL cells; for EC50: 37° C. for 30 minutes, intracellular cAMP by fluorescence method; for Human MC1R IA %: Intrinsic Activity, vehicle cAMP = 0%, αMSH at 10^-6 M = 100%
Protocol: (1) Method for Culturing Cells
Human MC1R agonist activity measurement was carried out by using human melanoma cell line HBL. Culture of HBL: F-10 Nutrient Mixture containing 10% FCS and Penicillin-streptomycin was used in the culture.
(2) cAMP Assay and Data Calculation
Each compound solution having each concentration was mixed with cAMP assay buffer (HBSS (Hank's Balanced Salt Solution) containing 10 mM HEPES and 0.1% BSA), and dispensed into 96 well plate. HBL was suspended in cAMP assay buffer containing 0.5 mM IBMX so that the concentrate became 5×10^4/mL, dispensed into the above 96 well plate, then mixed, left to stand at 37° C. for 30 minutes, and then the intracellular […] concentration was measured by fluorescence method using Envision (ex. 320 nm, em. 590 nm and 665 nm).

T1 sequence (Q01726 whole entry): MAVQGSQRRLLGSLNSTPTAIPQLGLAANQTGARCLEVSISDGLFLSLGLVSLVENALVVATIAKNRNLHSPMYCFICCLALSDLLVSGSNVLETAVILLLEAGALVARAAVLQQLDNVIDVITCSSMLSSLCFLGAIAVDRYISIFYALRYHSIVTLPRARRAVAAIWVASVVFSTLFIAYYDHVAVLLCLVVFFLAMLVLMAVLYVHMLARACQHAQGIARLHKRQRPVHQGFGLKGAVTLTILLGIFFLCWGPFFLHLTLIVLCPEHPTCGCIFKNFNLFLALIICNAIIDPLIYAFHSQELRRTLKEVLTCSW

SMILES | EC50 | Human MC1R IA %
COc1ccc([C@@H]2CN(C(C)(C)C)C[C@@]2(F)C(=O)N2CCC(c3ccc(C(F)(F)F)cc3N3CCN(C(N)=O)CC3)CC2)cc1.Cl.Cl [Example 284, 4-[2-(1-{[(3R,4R)-1-tert-butyl-3-fluoro-4-(4-methoxyphenyl)pyrrolidin-3-yl]carbonyl}piperidin-4-yl)-5-(trifluoromethyl)phenyl]piperazine-1-carboxamide dihydrochloride] | 14 nM | 81%
COC[C@@H]1C[C@@H](c2ccc(Cl)cc2N2CCC(C(=O)O)CC2)CN1C(=O)[C@]1(F)CN([C@H]2CC[C@H](OC)CC2)C[C@H]1c1ccc(OC)cc1 [Example 111] | 5.9 nM | 83%
COc1ccc([C@@H]2CN(C(C)(C)C)C[C@@]2(F)C(=O)N2C[C@H](C(=O)O)[C@@H](c3ccc(C(F)(F)F)cc3N3CCC(C(=O)OC(C)(C)C)CC3)C2)cc1 [Example 223, (3R,4S)-4-{2-[4-(tert-butoxycarbonyl)piperidin-1-yl]-4-(trifluoromethyl)phenyl}-1-{[(3R,4R)-1-tert-butyl-3-fluoro-4-(4-methoxyphenyl)pyrrolidin-3-yl]carbonyl}pyrrolidin-3-carboxylic acid] | 90 nM | 71%
COc1ccc([C@@H]2CN(C(C)(C)C)C[C@@]2(F)C(=O)N2CCC(C#N)(c3ccc(C(F)(F)F)cc3-c3ccc(C(=O)O)cc3)CC2)cc1 [Example 87] | 56 nM | 90%
CCO[C@H]1CC[C@H](N2C[C@@H](c3ccc(OC)cc3)[C@](OC)(C(=O)N3C[C@H](COC)[C@@H](c4ccc(C(F)(F)F)cc4N4CCC(C(=O)O)CC4)C3)C2)CC1 [Example 140] | 4.1 nM | 98%
COC[C@@H]1C[C@@H](c2ccc(C(F)(F)F)cc2N2CCC(C(=O)O)CC2)CN1C(=O)[C@]1(OC)CN(C2CCCCCC2)C[C@H]1c1ccc(OC)cc1 [Example 154] | 1.1 nM | 85%
COC[C@@]1(F)CN(C(=O)[C@]2(F)CN([C@H]3CC[C@H](OC)CC3)C[C@H]2c2ccc(OC)cc2)C[C@@H]1c1ccc(C(F)(F)F)cc1N1CCC(C(=O)O)CC1 [Example 120] | 8.8 nM | 109%
COc1ccc([C@@H]2CN(C3CCN(C(CF)CF)CC3)C[C@@]2(F)C(=O)N2CC[C@@H](c3ccc(C(F)(F)F)cc3N3CCC(C(=O)O)CC3)C2)cc1 [Example 219] | 6.7 nM | 104%
COc1ccc([C@@H]2CN(C(C)(C)C)C[C@@]2(F)C(=O)N2CC[C@@H](c3ccc(C(F)(F)F)cc3N3CCC(C(=O)O)CC3)C2)cc1.Cl.Cl [Example 286a, 1-{2-[(3S)-1-{[(3R,4R)-1-tert-butyl-3-fluoro-4-(4-methoxyphenyl)pyrrolidin-3-yl]carbonyl}pyrrolidin-3-yl]-5-(trifluoromethyl)phenyl}piperidine-4-carboxylic acid dihydrochloride] | 4.4 nM | 105%
COC[C@H]1CN(C(=O)[C@]2(F)CN(c3ccc(OC)nn3)C[C@H]2c2ccc(OC)cc2)C[C@@H]1c1ccc(C(F)(F)F)cc1N1CCC(C(=O)O)CC1 [Example 64] | 19 nM | 53%
COC[C@@H]1C[C@@H](c2ccc(C(F)(F)F)cc2N2CCC(C(=O)O)CC2)CN1C(=O)[C@]1(F)CN(C2CCCC2)C[C@H]1c1ccc(OC)cc1 [Example 134] | 0.45 nM | 96%
COc1ccc([C@@H]2CN(C3CCCC3)C[C@@]2(F)C(=O)N2CCC=C(c3ccc(C(F)(F)F)cc3N3CCC(C(=O)O)CC3)C2)cc1 [Example 163] | 20 nM | 36%
COC[C@H]1CN(C(=O)[C@]2(F)CN(CC(=O)N3CCCCC3)C[C@H]2c2ccc(OC)cc2)C[C@@H]1c1ccc(C(F)(F)F)cc1N1CCC(C(=O)O)CC1 [Example 306] | 6.8 nM | 96%
COc1ccc([C@@H]2CN(C(C)(C)CO)C[C@@]2(F)C(=O)N2CCC(c3ccc(C(F)(F)F)cc3N3CCC(C(=O)O)CC3)CC2)cc1 [Example 320] | 30 nM | 79%
COC[C@@H]1C[C@@H](c2ccc(C(F)(F)F)cc2N2CCC(C(=O)O)CC2)CN1C(=O)[C@]1(F)CN([C@H]2CC[C@H](C#N)CC2)C[C@H]1c1ccc(OC)cc1 [Example 143] | 0.76 nM | 96%
COc1ccc([C@@H]2CN([C@H]3CC[C@H](OC)CC3)C[C@@]2(F)C(=O)N2C[C@H](c3ccc(C(F)(F)F)cc3N3CCC(C(=O)O)CC3)[C@@H](F)C2)cc1 [Example 148] | 3.6 nM | 93%
COc1ccc([C@@H]2CN(C(C)(C)C)C[C@@]2(F)C(=O)N2CCC(c3ccc(C(F)(F)F)cc3OCCCC(=O)NS(=O)(=O)N(C)C)CC2)cc1.Cl [Example 272, 4-[2-(1-{[(3R,4R)-1-tert-butyl-3-fluoro-4-(4-methoxyphenyl)pyrrolidin-3-yl]carbonyl}piperidin-4-yl)-5-(trifluoromethyl)phenoxy]-N-(dimethylsulfamoyl)butanamide hydrochloride] | 18 nM | 91%
COc1ccc([C@@H]2CN(C(C)(C)C)C[C@@]2(F)C(=O)N2CCC(c3ccc(C(F)(F)F)cc3N3CCC(C(N)=O)CC3)CC2)cc1 [Example 232] | 10 nM | 95%
COc1ccc([C@@H]2CN(C(C)(C)C)C[C@@]2(F)C(=O)N2CC[C@H](c3ccc(C(F)(F)F)cc3N3CCC(C(=O)O)CC3)C2)cc1.Cl.Cl [Example 286b, 1-{2-[(3R)-1-{[(3R,4R)-1-tert-butyl-3-fluoro-4-(4-methoxyphenyl)pyrrolidin-3-yl]carbonyl}pyrrolidin-3-yl]-5-(trifluoromethyl)phenyl}piperidine-4-carboxylic acid dihydrochloride] | 189 nM | 71%
COC[C@@H]1C[C@@H](c2ccc(C(F)(F)F)cc2N2CCC(C(=O)O)CC2)CN1C(=O)[C@]1(F)CN([C@H]2CC[C@H](OC)CC2)C[C@H]1c1ccc(OC)cc1 [Example 135] | 0.47 nM | 96%
COc1ccc([C@@H]2CN(C3CCCC3)C[C@@]2(F)C(=O)N2C[C@H](c3ccc(C(F)(F)F)cc3N3CCC(C(=O)O)CC3)C[C@H]2CC#N)cc1 [Example 105] |  | 86%
COc1ccc([C@@H]2CN(C(C)(C)C)C[C@@]2(F)C(=O)N2CC(c3ccc(C(F)(F)F)cc3N3CCC(C(=O)O)CC3)C2)cc1 [Example 84] | 40 nM | 119%
CNC(=O)C1CCN(c2cc(C(F)(F)F)ccc2C2CCN(C(=O)[C@]3(F)CN(C(C)(C)C)C[C@H]3c3ccc(OC)cc3)CC2)CC1.Cl.Cl [Example 231, 1-[2-(1-{[(3R,4R)-1-tert-butyl-3-fluoro-4-(4-methoxyphenyl)pyrrolidin-3-yl]carbonyl}piperidin-4-yl)-5-(trifluoromethyl)phenyl]-N-methylpiperidine-4-carboxamide dihydrochloride] | 11 nM | 82%
COc1ccc([C@@H]2CN(C(C)(C)C)C[C@@]2(F)C(=O)N2CCC(c3ccc(C(F)(F)F)cc3OCCCc3noc(=O)[nH]3)CC2)cc1.Cl [Example 295, 3-{3-[2-(1-{[(3R,4R)-1-tert-butyl-3-fluoro-4-(4-methoxyphenyl)pyrrolidin-3-yl]carbonyl}piperidin-4-yl)-5-(trifluoromethyl)phenoxy]propyl}-1,2,4-oxadiazole-5(4H)-one hydrochloride] | 31 nM | 91%
